Drawing on patent US10017507B2, “Diaza-benzofluoranthrene compounds” (HARBIN PHARMACEUTICAL GROUP CO., LTD. GENERAL …, priority 2015, dated 2018), this text covers IC50 for 25 molecules.

Bounds are passed on as bounds.

In the assay the target is T1, PDE1A (Homo sapiens, UniProt P54750).
T1 construct: purchased SignalChem
The experiment in a line: In vitro detection of phosphodiesterase (PDE): PDE1A enzyme activity by fluorescence polarization immunoassay. The class given is biochemical. As to conditions: human-derived enzyme, cAMP or cGMP substrate; read-out: IC50s for PDE1. The procedure: Test 1: In Vitro Detection of Phosphodiesterase (PDE)
the enzyme activity of PDE1A was determined by detecting the production of AMP/GMP by fluorescence polarization immunoassay, wherein AlexaFluor 633 labeled AMP/GMP was used to replace AMP/GMP to bind with the antibody.
Reaction buffer: 10 mM Tris-HCl, pH 7.5, 5 mM magnesium chloride, 0.01% Brij 35, 1 mM DTT and 1% DMSO;
Enzyme substrate: […] cAMP or cGMP (Ca^2+-calmodulin acts as a cofactor of PDE1A)
Detection reagent: Transcreener® AMP2/GMP2 antibody; AMP2/GMP2 AlexaFluor 633 tracer.
Experimental Procedure and Method:
1. Human-derived enzyme (commercially available from SignalChem) to be tested and substrate were diluted with freshly prepared reaction buffer;
2. The enzyme solution (with a concentration of 3 pM) was added to the holes of the microplates;
3. A series of solutions of the compounds in 100% DMSO (with the desired concentrations) were added to the holes containing the enzyme solution by Echo550, and then the microplates were incubated for 10 minutes at room temperature;
4. The substrate solution was added to the holes containing the enzyme and compounds to start the reaction;
5. The microplates were incubated for 1 hour under room temperature and vibration;
6. The detection mixture (tracer and antibody in stop buffer) was added to stop the enzyme reaction, and the microplates were incubated for 90 minutes under vibration;
7. The equipment EnVision (PerkinElmer), Cy5 FP Ex FP 620, Em S-pol 688/P-pol 688, FP mirror D658fp/D688 was used to detect the reaction mixture, and Ex/Em 620/688 was used to detect the fluorescence polarization.
In the Excel table, the enzyme activity corresponding to the FP signal was found on the AMP/GMP standard curve by reference to the DMSO negative control, and then was converted to product concentration (nM). GraphPad Prism was used to analyze and calculate the IC50 values.
On to `CC[C@@]12C=C(C(O)C(F)(F)F)n3c4c(c5ccccc53)CCN(CCC1)[C@H]42` (stereo partly drawn) [Example 1, 1-((4^1S,13aS)-13a-ethyl-2,3,4^1,5,6,13a-hexahydro-1H-indolyl[3,2,1-de]pyridyl[3,2,1-ij][1,5]naphthyridine-12-yl)-2,2,2-trifluoroethanol], for which the IC50 is more than 100 µM.
Then `CC[C@@]12C=C(/C(C#N)=N/OC)n3c4c(c5ccccc53)CCN(CCC1)[C@H]42` [Example 2, (4^1S,13aS,Z)-13a-ethyl-N-methoxyl-2,3,4^1,5,6,13a-hexahydro-1H-indolo[3,2,1-de]pyrido[3,2,1-ij][1,5]naphthyridine-12-carbimidoyl cyanide], with 1 to 20 µM; and `CC[C@@]12C=C(c3ncc[nH]3)n3c4c(c5ccccc53)CCN(CCC1)[C@H]42` [Example 3, (4^1S,13aS)-13a-ethyl-12-(1H-imidazol-2-yl)-2,3,4^1,5,6,13a-hexahydro-1H-indolo[3,2,1-de]pyrido[3,2,1-ij][1,5]naphthyridine], with more than 100 µM; and `CC[C@@]12C=C(c3cnco3)n3c4c(c5ccccc53)CCN(CCC1)[C@H]42` [Example 4, 5-((4^1S,13aS)-13a-ethyl-2,3,4^1,5,6,13a-hexahydro-1H-indolo[3,2,1-de]pyrido[3,2,1-ij][1,5]naphthyridin-12-yl)oxazole], with 20 to 100 µM.
The value for `CC[C@@]12C=C(/C=C/C(=O)O)n3c4c(c5ccccc53)CCN(CCC1)[C@H]42` [Example 5, (E)-3-((4^1S,13aS)-13a-ethyl-2,3,4^1,5,6,13a-hexahydro-1H-indolo[3,2,1-de]pyrido[3,2,1-ij][1,5]naphthyridin-12-yl)acrylic acid] was more than 100 µM.
As for `CCOC(=O)/C=C/C1=C[C@]2(CC)CCCN3CCc4c(n1c1ccccc41)[C@@H]32` [Example 6, (E)-ethyl-3-((4^1S,13aS)-13a-ethyl-2,3,4^1,5,6,13a-hexahydro-1H-indolo[3,2,1-de]pyrido[3,2,1-ij][1,5]naphthyridin-12-yl)acrylate], the IC50 fell in the range of 1 to 20 µM.
`CC[C@@]12C=C(/C=C/C(N)=O)n3c4c(c5ccccc53)CCN(CCC1)[C@H]42` [Example 7, (E)-3-((4^1S,13aS)-13a-ethyl-2,3,4^1,5,6,13a-hexahydro-1H-indolo[3,2,1-de]pyrido[3,2,1-ij][1,5]naphthyridin-12-yl)acrylamide]: the IC50 was 20 to 100 µM.
Then `CC[C@@]12C=C(c3nccc(C)n3)n3c4c(c5ccccc53)CCN(CCC1)[C@H]42` [Example 8, (4^1S,13aS)-13a-ethyl-12-(4-methylpyrimidin-2-yl)-2,3,4^1,5,6,13a-hexahydro-1H-indolo[3,2,1-de]pyrido[3,2,1-ij][1,5]naphthyridine], with 20 to 100 µM.
Then `CC[C@@]12C=C(c3ccc(C)nn3)n3c4c(c5ccccc53)CCN(CCC1)[C@H]42` [Example 9, (4^1S,13aS)-13a-ethyl-12-(6-methylpyridazin-3-yl)-2,3,4^1,5,6,13a-hexahydro-1H-indolo[3,2,1-de]pyrido[3,2,1-ij][1,5]naphthyridine], with 1 to 20 µM.
Then `CC[C@@]12C=C(c3cncc(C)n3)n3c4c(c5ccccc53)CCN(CCC1)[C@H]42` [Example 10, (4^1S,13aS)-13a-ethyl-12-(6-methylpyrazin-2-yl)-2,3,4^1,5,6,13a-hexahydro-1H-indolo[3,2,1-de]pyrido[3,2,1-ij][1,5]naphthyridine], with 1 to 20 µM.
As to `CC[C@@]12C=C(c3ccccn3)n3c4c(c5ccccc53)CCN(CCC1)[C@H]42` [Example 11, (4^1S,13aS)-13a-ethyl-12-(pyridin-2-yl)-2,3,4^1,5,6,13a-hexahydro-1H-indolo[3,2,1-de]pyrid o[3,2,1-ij][1,5]naphthyridine], the IC50 was in the range of 20 to 100 µM.
The value for `CC[C@@]12C=C(c3cccc(C)n3)n3c4c(c5ccccc53)CCN(CCC1)[C@H]42` [Example 12, (4^1S,13aS)-13a-ethyl-12-(6-methylpyridin-2-yl)-2,3,4^1,5,6,13a-hexahydro-1H-indolo[3,2,1-de]pyrido[3,2,1-ij][1,5]naphthyridine] was 1 to 20 µM; that for `CC[C@@]12C=C(c3ncccc3C)n3c4c(c5ccccc53)CCN(CCC1)[C@H]42` [Example 13, (4^1S,13aS)-13a-ethyl-12-(3-methylpyridin-2-yl)-2,3,4^1,5,6,13a-hexahydro-1H-indolo[3,2,1-de]pyrido[3,2,1-ij][1,5]naphthyridine] was 20 to 100 µM.
Then `CC[C@@]12C=C(c3cnc(C)c(C)n3)n3c4c(c5ccccc53)CCN(CCC1)[C@H]42` [Example 14, (4^1S,13aS)-12-(5,6-dimethylpyrazin-2-yl)-13a-ethyl-2,3,4^1,5,6,13a-hexahydro-1H-indolo[3,2,1-de]pyrido[3,2,1-ij][1,5]naphthyridine], with 1 to 20 µM; and `CC[C@@]12C=C(c3nnco3)n3c4c(c5ccccc53)CCN(CCC1)[C@H]42` [Example 15, 2-((4^1S,13aS)-13a-ethyl-2,3,4^1,5,6,13a-hexahydro-1H-indolo[3,2,1-de]pyrido[3,2,1-ij][1,5]naphthyridin-12-yl)-1,3,4-oxadiazole], with more than 100 µM; and `CC[C@@]12C=C(c3n[nH]c(=O)o3)n3c4c(c5ccccc53)CCN(CCC1)[C@H]42` [Example 16, 5-((4^1S,13aS)-13a-ethyl-2,3,4^1,5,6,13a-hexahydro-1H-indolo[3,2,1-de]pyrido[3,2,1-ij][1,5]naphthyridin-12-yl)-1,3,4-oxadiazol-2(3H)-one], with 1 to 20 µM.
As to `CC[C@@]12C=C(c3nnc(C)o3)n3c4c(c5ccccc53)CCN(CCC1)[C@H]42` [Example 17, 2-((4^1S,13aS)-13a-ethyl-2,3,4^1,5,6,13a-hexahydro-1H-indolo[3,2,1-de]pyrido[3,2,1-ij][1,5]naphthyridin-12-yl)-5-methyl-1,3,4-oxadiazole], the IC50 was 1 to 20 µM.
Then `CC[C@@]12C=C(c3noc(=O)[nH]3)n3c4c(c5ccccc53)CCN(CCC1)[C@H]42` [Example 18, 3-((4^1S,13aS)-13a-ethyl-2,3,4^1,5,6,13a-hexahydro-1H-indolo[3,2,1-de]pyrido[3,2,1-ij][1,5]naphthyridin-12-yl)-1,2,4-oxadiazol-5 (4H)-one], with more than 100 µM.
`CC[C@@]12C=C(c3nsc(=O)[nH]3)n3c4c(c5ccccc53)CCN(CCC1)[C@H]42` [Example 19, 3-((4^1S,13aS)-13a-ethyl-2,3,4^1,5,6,13a-hexahydro-1H-indolo[3,2,1-de]pyrido[3,2,1-ij][1,5]naphthyridin-12-yl)-1,2,4-thiadiazol-5(4H)-one]: the IC50 was more than 100 µM.
As to `CC[C@@]12C=C(c3noc(C)n3)n3c4c(c5ccccc53)CCN(CCC1)[C@H]42` [Example 20, 3-((4^1S,13aS)-13a-ethyl-2,3,4^1,5,6,13a-hexahydro-1H-indolo[3,2,1-de]pyrido[3,2,1-ij][1,5]naphthyridin-12-yl)-5-methyl-1,2,4-oxadiazole], the IC50 is 1 to 20 µM.
Then `CC[C@@]12C=C(c3noc(C(F)(F)F)n3)n3c4c(c5ccccc53)CCN(CCC1)[C@H]42` [Example 21, 3-((4^1S,13aS)-13a-ethyl-2,3,4^1,5,6,13a-hexahydro-1H-indolo[3,2,1-de]pyrido[3,2,1-ij][1,5]naphthyridin-12-yl)-5-trifluoromethyl-1,2,4-oxadiazole], with more than 100 µM.
Then `CC[C@@]12C=C(c3nc(C(F)(F)F)no3)n3c4c(c5ccccc53)CCN(CCC1)[C@H]42` [Example 22, 5-((4^1S,13aS)-13a-ethyl-2,3,4^1,5,6,13a-hexahydro-1H-indolo[3,2,1-de]pyrido[3,2,1-ij][1,5]naphthyridin-12-yl)-3-trifluoromethyl-1,2,4-oxadiazole], with 20 to 100 µM; and `CC[C@@]12C=C(c3noc(C4CCOCC4)n3)n3c4c(c5ccccc53)CCN(CCC1)[C@H]42` [Example 23, 3-((4^1S,13aS)-13a-ethyl-2,3,4^1,5,6,13a-hexahydro-1H-indolo[3,2,1-de]pyrido[3,2,1-ij][1,5]naphthyridin-12-yl)-5-(tetrahydro-2H-pyran-4-yl)-1,2,4-oxadiazole], with 1 to 20 µM; and `CC[C@@]12C=C(c3noc(-c4ccncc4)n3)n3c4c(c5ccccc53)CCN(CCC1)[C@H]42` [Example 24, 3-((4^1S,13aS)-13a-ethyl-2,3,4^1,5,6,13a-hexahydro-1H-indolo[3,2,1-de]pyrido[3,2,1-ij][1,5]naphthyridin-12-yl)-5-(pyridin-4-yl)-1,2,4-oxadiazole], with 20 to 100 µM.
Then `CC[C@@]12C=C(c3noc(C(C)(C)O)n3)n3c4c(c5ccccc53)CCN(CCC1)[C@H]42` [Example 25, 2-(3-((4^1S,13aS)-13a-ethyl-2,3,4^1,5,6,13a-hexahydro-1H-indolo[3,2,1-de]pyrido[3,2,1-ij][1,5]naphthyridin-12-yl)-1,2,4-oxadiazol-5-yl)propan-2-ol], with 1 to 20 µM.
